Experimental data reported in patent publication US4279912A, “Novel imidazoquinolines” (Roussel Uclaf, priority 1977, dated 1981).
Counter-ions that a name gives are not always drawn. Like-named read-outs stand apart in the source and are kept apart here.

Test system: Passive cutaneous anaphylaxis (PCA)
Test: Passive cutaneous anaphylaxis (PCA) in rats
Assay type: in vivo
Details: Rattus norvegicus
Text: Cutaneous anaphylaxis can be induced in rats by intradermal (ID) sensitization with antiserum followed three days later by systemic challenge with antigen. Evans blue dye injected with the antigen is used as a marker to assess the severity of the local response. Anti-allergic drugs inhibit this reaction. This method has been described by OVARY (1962) "[…] Cutaneous Anaphylaxis in Allergology" Page 358-367 Ed. Brown: Pergamon Press:-male rats weighing 180-220 grams are used in groups of seven. […] 1. Wash 120 grams of Al(OH)3 gel in 140 ml of saline (use of a macerater facilitates mixing). 2. Centrifuge at 3,000 r.p.m. for about 10 minutes. 3. Resuspend the precipitate with 300 ml of albumen egg powder (1.3 mg/ml) in saline and allow to stand for 30 minutes. 4. Centrifuge at 3,000 r.p.m. for 10 minutes. 5. Weigh the wet precipitate and to each gram weight add 1 ml of saline. Store in refrigerator (Quantity sufficient for 60 rats for a 3 day sensitization program). […] 1 ml of the alum precipitated ovalbumen was injected subcutaneously into rats weighing 180-220 grams on days 0,2,4. The rats were bled on day 14 either by cardiac puncture or via the dorsal abdominal aorta. Equal quantities of serum from each animal were pooled and thoroughly mixed and 2 ml aliquots were stored at -20° C. in plastic tubes. Serum Dilution for PCA The antiserum for sensitization was diluted so that an ID injection of 0.1 ml into control animals would give an average score of a single spot of between 2.0-3.5 using a 4 point scoring system. Method (A) SENSITIZATION: The rats were anaesthetized with Nembutal (40-60 mg/kg i.p.) and were then sensitized by four ID injections (0.1 ml each) on their shaved backs. The animals were then left for a period of three days to develop sensitization. (B) […]: The sensitized rats were dosed orally or intraveneously with the drug immediately prior to intraveneous challenge via the superficial penile vein with 1 ml of an antigen/Evans blue mixture (1 mg albumen egg powder in 0.5 ml saline plus 0.5 ml of 1% Evans blue). The injections were speeded up by using an automatic 1 ml self-filling glass syringe. The "challenged" rats were killed after 30 minutes, (usually pithed) and their skin on the dorsal surface was removed. The degree and area of blueing, proportional to the anaphylactic reaction was assessed on a four point scoring system. Calculations 1. Total scores for sites 1,2,3 and 4=X 2. Mean value of X for each group=X 3. X t=X for test group X c=X for control group [formula] 5. […] ED50 values for the compounds tested in the passive cutaneous anaphylaxis screen (in rats) are as follows: […]

[1] = read-out: ED50 (dose of drug giving 50% inhibition), i.v., intravenous dosing immediately prior to antigen/Evans blue challenge
[2] = read-out: ED50 (dose of drug giving 50% inhibition), p.o., oral dosing immediately prior to antigen/Evans blue challenge

SMILES	ED50 [1] [mg/kg]	ED50 [2] [mg/kg]
CC(C)Oc1cc2nc(C(=O)O)cn2c2cc(Cl)ccc12 [Example 18, 8-chloro-5-isopropoxyimidazo-[1,2-a]-quinoline-2-carboxylic acid]	0.027	0.34
O=C(O)c1cn2c(ccc3ccc(Cl)cc32)n1 [Example 10, sodium 8-chloroimidazo-[1,2-a]-quinoline-2-carboxylate]	0.069	0.11
CCOC(=O)c1cn2c(cc(Cl)c3ccccc32)n1 [Example 5, ethyl 5-chloroimidazo-[1,2-a]-quinoline-2-carboxylate]	–	0.096
O=C(OCCN1CCCCC1)c1cn2c(ccc3ccccc32)n1 [Example 35, 2-piperidinoethyl imidazo-[1,2-a]-quinoline-2-carboxylate]	0.42	–
O=C(O)c1cn2c(cc(Br)c3ccccc32)n1 [Example 26, 5-bromoimidazo-[1,2-a]-quinoline-2-carboxylic acid]	0.046	0.14
O=C(O)c1cn2c(ccc3ccccc32)n1 [Example 2, imidazo-[1,2-a]-quinoline-2-carboxylic acid hydrochloride]	0.29	0.63
O=C(O)c1cn2c(cc(Cl)c3ccc(Br)cc32)n1 [Example 32, 8-bromo-5-chloroimidazo-[1,2-a]-quinoline-2-carboxylic acid]	0.025	0.08
COc1ccc2c(OC(C)C)cc3nc(C(=O)O)cn3c2c1 [Example 14, 8-methoxy-5-isopropoxyimidazo-[1,2-a]-quinoline-2-carboxylic acid]	0.091	~10
COc1ccc2c(Cl)cc3nc(C(=O)O)cn3c2c1.Cl [Example 16, 5-chloro-8-methoxyimidazo-[1,2-a]-quinoline-2-carboxylic acid hydrochloride]	0.016	0.27
COc1ccc2c(ccc3nc(C(=O)O)cn32)c1 [Example 28, 7-methoxyimidazo-[1,2-a]-quinoline-2-carboxylic acid]	0.03	–
O.O=C(O)c1cn2c(ccc3cc(Cl)ccc32)n1 [Example 24, 7-chloroimidazo-[1,2-a]-quinoline-2-carboxylic acid monohydrate]	0.29	–
CC(C)Oc1cc2nc(C(=O)O)cn2c2ccccc12 [Example 8, 5-isopropoxyimidazo-[1,2-a]-quinoline-2-carboxylic acid hydrochloride]	0.12	1.13
COc1cc2nc(C(=O)O)cn2c2ccccc12 [Example 4, THAM salt of 5-methoxyimidazo-[1,2-a]-quinoline-2-carboxylic acid]	0.57	3.74
CCOC(=O)c1cn2c(ccc3ccc(Cl)cc32)n1 [Example 9, ethyl 8-chloroimidazo-[1,2-a]-quinoline-2-carboxylate]	–	1.72
COc1ccc2ccc3nc(C(=O)O)cn3c2c1 [Example 20, 8-methoxyimidazo-[1,2-a]-quinoline-2-carboxylic acid]	0.038	0.14
O=C(O)c1cn2c(cc(Cl)c3ccccc32)n1 [Example 6, 5-chloroimidazo-[1,2-a]-quinoline-2-carboxylic acid hydrochloride]	0.0075	0.47
O=C(O)c1cn2c(cc(Cl)c3ccc(Cl)cc32)n1 [Example 22, 5,8-dichloroimidazo-[1,2-a]-quinoline-2-carboxylic acid]	0.023	0.033
COc1ccc2c(OC)cc3nc(C(=O)O)cn3c2c1 [Example 12, 5,8-dimethoxyimidazo-[1,2-a]-quinoline-2-carboxylic acid]	1.22	–
